Legend:
[1] = test system: PQS production; assay: Effect of methyl anthranilate on PQS production (TLC of culture supernatant extracts, densitometry); type: cell-based, P. aeruginosa strain PAO1
Experimental: Bacteria from frozen stocks were grown overnight on PTSB agar plates (Ohman, et al. (1980) J. Bacteriol. 142:836-842) at 37° C. Isolated colonies were used to inoculate 10 ml of PTSB which was then incubated for 18 hr at 37° C. with vigorous shaking. Cultures were diluted 1:100 into fresh media and grown for 24 hr as above. A 400 μl aliquot of each culture was mixed with 800 μl of acidified ethyl acetate (Pesci, et al. (1999) Proc. Natl. Acad. Sci. USA 96:11229-11234), vortexed vigorously for 30 sec, then centrifuged for 10 min at 16,000×g. The organic phase was transferred to a fresh tube, and the aqueous phase was re-extracted with an additional 800 μl of solvent. The organic phases were combined, dried to completion and the solute was dissolved in 200 μl of a 1:1 mix of acidified ethyl acetate:acetonitrile. An amount of extract derived from 5 μl of culture was loaded onto the TLC plate. TLC was performed with a silica gel 60 F254 TLC plate (EM Science) that had been soaked in 5% KH2PO4 and activated at 100° C. for one hour. […]
P. aeruginosa strain PAO1 was grown in the presence of increasing amounts of methyl anthranilate, and culture supernatants were extracted with ethyl acetate and separated on TLC plates. PQS was visualized under long-wave UV light and photographed to quantify PQS densitometrically. […]

[2] = test system: P. aeruginosa strain PAO1; assay: Growth of cultures in the presence of methyl anthranilate; type: cell-based; settings: 0, 0.25, 0.5, 1.0, and 1.5 mM methyl anthranilate
Experimental: P. aeruginosa strain PAO1 was grown in the presence of increasing amounts of methyl anthranilate, and culture supernatants were extracted with ethyl acetate and separated on TLC plates. PQS was visualized under long-wave UV light and photographed to quantify PQS densitometrically. The amount of PQS present in the culture supernatant decreased as the concentration of methyl anthranilated increased, although the growth of the cultures was not affected by the presence of methyl anthranilate at the concentrations used in these experiments (0, 0.25, 0.5, 1.0, and 1.5 mM methyl anthranilate, with approximately 30% PQS being produced at 1.5 mM methyl anthranilate as compared to wild type bacateria).

## COC(=O)c1ccccc1N [methyl anthranilate]
[1]; 1.5 mM methyl anthranilate, strain PAO1 culture supernatant, densitometry of TLC under long-wave UV
  PQS being produced as compared to wild type bacteria: approximately 30%
[1]; increasing methyl anthranilate concentration (0, 0.25, 0.5, 1.0, and 1.5 mM), strain PAO1
  amount of PQS present in the culture supernatant: decreased
[2]
  growth of the cultures: not affected
